Molecular target: T1, GIVA cPLA2 (Homo sapiens, UniProt P47712)
T1 construct: gene PLA2G4A
T1 sequence (P47712 1-749): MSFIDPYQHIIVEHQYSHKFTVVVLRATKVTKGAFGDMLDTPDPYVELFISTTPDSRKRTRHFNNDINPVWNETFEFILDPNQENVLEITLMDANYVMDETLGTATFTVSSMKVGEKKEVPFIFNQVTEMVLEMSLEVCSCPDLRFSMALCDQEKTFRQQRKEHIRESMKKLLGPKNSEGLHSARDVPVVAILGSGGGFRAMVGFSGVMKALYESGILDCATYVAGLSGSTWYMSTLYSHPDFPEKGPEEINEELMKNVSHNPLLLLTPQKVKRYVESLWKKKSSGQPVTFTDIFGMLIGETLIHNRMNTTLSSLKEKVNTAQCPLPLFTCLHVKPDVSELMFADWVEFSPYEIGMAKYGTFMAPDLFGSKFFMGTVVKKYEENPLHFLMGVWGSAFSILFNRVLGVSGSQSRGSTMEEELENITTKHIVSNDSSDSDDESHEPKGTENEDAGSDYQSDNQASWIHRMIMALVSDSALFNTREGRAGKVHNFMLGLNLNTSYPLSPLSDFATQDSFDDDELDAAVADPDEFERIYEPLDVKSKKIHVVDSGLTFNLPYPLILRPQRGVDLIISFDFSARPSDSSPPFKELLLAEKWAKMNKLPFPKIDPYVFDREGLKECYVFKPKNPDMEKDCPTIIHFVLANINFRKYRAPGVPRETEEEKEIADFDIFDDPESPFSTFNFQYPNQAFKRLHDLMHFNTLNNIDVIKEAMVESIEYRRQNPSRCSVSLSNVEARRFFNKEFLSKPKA
Experiment: LC/MS lipidomics-based mixed micelle assay with recombinant human enzyme, dose-response
Type: biochemical

GIVA cPLA2 / XI(50)	Compound
0.00036 ± 0.00007 mole fraction (XI(50))	CC(CCCc1ccc(-c2ccccc2)cc1)C(=O)C(=O)OCCCCC(=O)O (centres unmarked) [17a, 5-((6-([1,1’-Biphenyl]-4-yl)-3-methyl-2-oxohexanoyl)oxy)pentanoic acid]
0.0012 ± 0.00008 mole fraction (XI(50))	CC(CCCC(=O)O)OC(=O)C(=O)CCCCc1ccc(-c2ccccc2)cc1 (centres unmarked) [17b, 5-((6-([1,1’-Biphenyl]-4-yl)-2-oxohexanoyl)oxy)hexanoic acid]

From publication PMC7175278, “2-Oxoester Phospholipase A2 Inhibitors with Enhanced Metabolic Stability” (Biomolecules, 2020)
